Experimental data published in US7217702B2, “Selective antagonists of A2A adenosine receptors” (Adenosine Therapeutics, LLC, priority 2004, dated 2007).

Target: A2A adenosine receptor (Homo sapiens, UniProt P29274)
Assay: Human Ki of the compound tables
Type: binding
Settings: receptor subtype not given

A2A adenosine receptor, sequence (P29274 whole entry): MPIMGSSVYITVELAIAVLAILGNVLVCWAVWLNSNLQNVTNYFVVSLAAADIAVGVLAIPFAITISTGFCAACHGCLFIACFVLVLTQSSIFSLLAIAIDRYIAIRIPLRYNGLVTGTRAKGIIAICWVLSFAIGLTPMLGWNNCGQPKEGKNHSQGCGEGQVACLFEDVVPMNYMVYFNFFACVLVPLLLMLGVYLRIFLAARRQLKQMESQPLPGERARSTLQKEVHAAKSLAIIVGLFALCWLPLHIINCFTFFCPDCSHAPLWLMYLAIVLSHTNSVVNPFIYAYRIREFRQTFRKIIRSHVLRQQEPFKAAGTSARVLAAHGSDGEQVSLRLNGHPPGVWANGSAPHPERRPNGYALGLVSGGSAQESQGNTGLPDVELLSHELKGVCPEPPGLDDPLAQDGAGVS

Structure (SMILES)	Ki [nM]
C[C@@H]1CCC[C@@](O)(C#Cc2nc(NCC(c3ccccc3)c3ccccc3)c3ncn(C)c3n2)C1 [Compound 34, N6-(2-Diphenylethyl)-2-{2-[1(S)-hydroxy-3(R)-methyl-1-cyclohexyl]ethyn-1-yl}-9-methyladenine]	< 500
C#CCn1cnc2c(N[C@@H](C)c3cccc4ccccc34)nc(C#C[C@]3(O)CCC[C@@H](C)C3)nc21 [Compound 35, 2-{2-[1(S)-Hydroxy-3(R)-methyl-1-cyclohexyl]ethyn-1-yl}-N6-[(s)-(−)-alpha-napthalen-1-yl-ethyl]-9-(propargyl)adenine]	< 500
CCCn1cnc2c(N)nc(C#CC3(O)C4CC5CC(C4)CC3C5)nc21 (stereo not shown) [Compound 41, 2-{2-[Hydroxy-adamantan-2-yl]ethyn-1-yl}-9-propyladenine]	< 100
CCCCCCn1cnc2c(N)nc(C#CC3(O)C4CC5CC(C4)CC3C5)nc21 (stereo not shown) [Compound 42, 9-Hexyl-2-{2-[hydroxy-adamantan-2-yl]ethyn-1-yl}adenine]	< 1000
CC(C)Cn1cnc2c(N)nc(C#CC3(O)C4CC5CC(C4)CC3C5)nc21 (stereo not shown) [Compound 44, 2-{2-[Hydroxy-adamantan-2-yl]ethyn-1-yl}-9-isobutyl-adenine]	< 500
Nc1nc(C#CC2(O)C3CC4CC(C3)CC2C4)nc2c1ncn2CC1CC1 (stereo not shown) [Compound 45, 9-Cyclopropylmethyl-2-{2-[hydroxy-adamantan-2-yl]ethyn-1-yl}adenine]	< 100
Nc1nc(C#CC2(O)C3CC4CC(C3)CC2C4)nc2c1ncn2CC1CCC1 (stereo not shown) [Compound 46, 9-Cyclobutylmethyl-2-{2-[hydroxy-adamantan-2-yl]ethyn-1-yl}adenine]	< 100

Continued, values first:

Ki [nM]	Structure (SMILES)
< 100	CCC(CC)Nc1nc(C#C[C@]2(O)CCC[C@@H](C)C2)nc2c1ncn2Cc1ccccc1 [Compound 27, 9-Benzyl-2-{2-[1(S)-hydroxy-3(R)-methyl-1-cyclohexyl]ethyn-1-yl}-N6-(3-pentyl)adenine]
< 100	CCC(CC)Nc1nc(C#C[C@]2(O)CCC[C@@H](C)C2)nc2c1ncn2Cc1cccnc1 [Compound 28, 2-{2-[1(S)-Hydroxy-3(R)-methyl-1-cyclohexyl]ethyn-1-yl}-N6-(3-pentyl)-9-(pyridin-3-ylmethyl)adenine]
< 100	CCC(CC)Nc1nc(C#C[C@]2(O)CCC[C@@H](C)C2)nc2c1ncn2Cc1c(C)noc1C [Compound 30, 9-(3,5-Dimethyl-isoxazol-4-ylmethyl)-2-{2-[1(S)-hydroxy-3(R)-methyl-1-cyclohexyl]ethyn-1-yl}-N6-(3-pentyl)adenine]
< 100	C#CCn1cnc2c(N[C@@H](C)CC)nc(C#C[C@]3(O)CCC[C@@H](C)C3)nc21 [Compound 32, N6-[(S)-(+)-sec-Butyl]-2-{2-[1(S)-hydroxy-3(R)-methyl-1-cyclohexyl]ethyn-1-yl}-9-propargyl-adenine]
< 100	CC[C@H](C)Nc1nc(C#C[C@]2(O)CCC[C@@H](C)C2)nc2c1ncn2Cc1c(C)noc1C [Compound 33, N6-[(s)-(+)-sec-Butyl]-9-(3,5-dimethyl-isoxazol-4-ylmethyl)-2-{2-[1(S)-hydroxy-3(R)-methyl-1-cyclohexyl]ethyn-1-yl}adenine]
< 100	C#CCn1cnc2c(NCc3cccc(OC)c3)nc(C#C[C@]3(O)CCC[C@@H](C)C3)nc21 [Compound 36, 2-{2-[1(S)-Hydroxy-3(R)-methyl-1-cyclohexyl]ethyn-1-yl}-N6-(3-methoxybenzyl)-9-(propargyl)adenine]
< 100	C#CCn1cnc2c(NCc3ccccn3)nc(C#C[C@]3(O)CCC[C@@H](C)C3)nc21 [Compound 37, 2-{2-[1(S)-Hydroxy-3(R)-methyl-1-cyclohexyl]ethyn-1-yl}-9-(propargyl)-N6-(pyridin-2-ylmethyl)adenine]
< 100	Cn1cnc2c(N)nc(C#CC3(O)C4CC5CC(C4)CC3C5)nc21 (stereo not shown) [Compound 39, 2-{2-[Hydroxy-adamantan-2-yl]ethyn-1-yl}-9-methyladenine]
< 100	CCn1cnc2c(N)nc(C#CC3(O)C4CC5CC(C4)CC3C5)nc21 (stereo not shown) [Compound 40, 9-Ethyl-2-{2-[hydroxy-adamantan-2-yl]ethyn-1-yl}adenine]
